The results in this text go back to ChEMBL document CHEMBL4834431, “Design of Dimeric Bile Acid Derivatives as Potent and Selective Human NTCP Inhibitors” (J Med Chem, 2021).

Each structure is given as a SMILES string. pIC50: −log10 of the molar value. The source made the active and inactive calls. The calls are words filed in the database; no cut-off is given here.

The test system of series [1] is HepG2. The series is described as follows: Cytotoxicity against human HepG2 cells expressing NTCP assessed as reduction in cell viability at 10 uM after 48 hrs by alamar blue assay. Format: cell-based. To be noted: hepg2, 48 h. Background: The colour change of resazurin is a common sign of viable cells or microbes.
The target in series [2] is T1, Hepatic sodium/bile acid cotransporter (Homo sapiens, UniProt Q14973).
T1 sequence (Q14973 whole entry): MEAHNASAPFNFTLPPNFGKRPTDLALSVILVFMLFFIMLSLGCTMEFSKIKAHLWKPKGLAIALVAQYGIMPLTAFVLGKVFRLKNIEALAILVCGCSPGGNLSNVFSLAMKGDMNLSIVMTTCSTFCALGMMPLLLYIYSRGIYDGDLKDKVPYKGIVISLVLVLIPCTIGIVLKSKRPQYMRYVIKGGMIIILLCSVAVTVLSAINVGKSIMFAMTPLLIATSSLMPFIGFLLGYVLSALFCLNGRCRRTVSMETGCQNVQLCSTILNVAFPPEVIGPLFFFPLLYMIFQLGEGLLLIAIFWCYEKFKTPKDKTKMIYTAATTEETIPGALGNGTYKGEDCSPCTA
Put plainly: Inhibition of human NTCP-mediated NQL-064 uptake expressed in human HepG2 cells incubated for 30 mins. To be noted: hepg2, 0.5 h. It is filed as cell-based.

Series [3] concerns the target T1, Hepatic sodium/bile acid cotransporter. The series is described as follows: Inhibition of FITC-labeled HBV Pre-S1 polypeptide binding to human NTCP expressed in HepG2 cells after 2 to 3 hrs by confocal microscopic analysis. It is filed as cell-based. To be noted: time 2-3 hrs.
The subject of series [4] is HepG2. Put plainly: Effect on NTCP surface expression in human HepG2-NTCP cells assessed as reduction in NTCP surface expression level after 2 hrs by immunostaining based assay. Format: functional, cell-based.
The target in series [5] is T1, Hepatic sodium/bile acid cotransporter. The series is described as follows: Inhibition of human NTCP-mediated [3H]-TCA uptake expressed in human HepG2 cells at 2 uM. Format: cell-based. To be noted: hepg2, 2 µM.
The subject of series [6] is Hepatitis B virus. Put plainly: Antiviral activity against HBV infected in human HepG2-NTCP cells assessed as reduction in intracellular accumulation of HBcAg at 1 uM by immunostaining based fluorescence microscopic analysis. Format: functional, organism-based.
The subject of series [7] is Hepatitis B virus. The series is described as follows: Antiviral activity against HBV infected in human HepG2-NTCP cells assessed as reduction in HBeAg secretion at 1 uM pre-infected with virus followed by compound addition by ELISA. Format: functional, organism-based.
The next series deals with Hepatocyte. The series is described as follows: Cytotoxicity against primary tupaia hepatocytes expressing NTCP assessed as reduction in cell viability at 100 uM after 48 hrs by Cell-Titer Glo assay. It is filed as cell-based. To be noted: scandentia.
The target in series [8] is T2, Ileal sodium/bile acid cotransporter (Homo sapiens, UniProt Q12908).
T2 sequence (Q12908 whole entry): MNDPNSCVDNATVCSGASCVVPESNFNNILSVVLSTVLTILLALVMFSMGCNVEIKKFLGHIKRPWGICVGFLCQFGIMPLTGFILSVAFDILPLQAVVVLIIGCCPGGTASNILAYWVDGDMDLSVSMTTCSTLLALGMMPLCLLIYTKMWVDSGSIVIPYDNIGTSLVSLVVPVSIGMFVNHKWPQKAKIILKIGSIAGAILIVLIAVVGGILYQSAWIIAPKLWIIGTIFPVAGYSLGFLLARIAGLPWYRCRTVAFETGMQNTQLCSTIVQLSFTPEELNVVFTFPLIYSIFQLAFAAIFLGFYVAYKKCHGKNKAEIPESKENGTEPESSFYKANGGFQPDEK
Put plainly: Inhibition of human ASBT-mediated [3H]-TCA uptake expressed in human HepG2 cells at 2 uM. It is filed as cell-based. To be noted: hepg2, 2 µM.

In series [9] the target is T3, Hepatic sodium/bile acid cotransporter (Mus musculus, UniProt O08705).
T3 sequence (O08705 whole entry): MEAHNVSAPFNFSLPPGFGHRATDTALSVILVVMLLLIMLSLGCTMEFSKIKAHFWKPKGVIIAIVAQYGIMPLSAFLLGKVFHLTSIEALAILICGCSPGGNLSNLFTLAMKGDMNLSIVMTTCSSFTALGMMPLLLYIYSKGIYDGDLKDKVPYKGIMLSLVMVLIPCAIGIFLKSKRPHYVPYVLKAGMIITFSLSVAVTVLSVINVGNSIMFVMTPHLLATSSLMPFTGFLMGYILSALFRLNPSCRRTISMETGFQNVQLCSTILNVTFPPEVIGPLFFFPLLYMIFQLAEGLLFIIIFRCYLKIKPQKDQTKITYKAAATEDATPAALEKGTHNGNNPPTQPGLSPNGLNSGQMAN
Put plainly: Inhibition of mouse NTCP-mediated [3H]-TCA uptake expressed in human HepG2 cells. Format: cell-based.

The subject of series [10] is Hepatitis B virus. Put plainly: Antiviral activity against HBV infected in human HepG2-NTCP cells assessed as reduction in intracellular accumulation of HBsAg at 1 uM by immunostaining based fluorescence microscopic analysis. It is filed as functional, organism-based.
The test system of another series is Hepatitis delta virus. Put plainly: Antiviral activity against HDV infected in human HepG2-NTCP cells assessed as reduction in intranuclear accumulation of HDV delta antigen at 5 uM incubated for 24 hrs followed by replacement with fresh medium and measured at day 5 post infection by DAPI staining based confocal microscopic analysis (reference value: 12.1 %). It is filed as functional. Also on record: scale not given: the % may be the effect or the level left.

Series [11] has as its target T1, Hepatic sodium/bile acid cotransporter. Put plainly: Inhibition of human NTCP-mediated NQL-065 uptake expressed in human HepG2 cells incubated for 30 mins. It is filed as cell-based. To be noted: hepg2, 0.5 h.
For series [12], the system named is Hepatitis B virus. Put plainly: Antiviral activity against HBV infected in human HepG2-NTCP cells assessed as reduction in HBeAg secretion at 1 uM preincubated with compound followed by viral infection by ELISA. It is filed as functional, organism-based. (In general: In an ELISA, binding on a coated surface is turned into a signal by an enzyme label.)
The test system of series [13] is Hepatitis B virus. Put plainly: Antiviral activity against HBV infected in human HepG2-NTCP cells assessed as reduction in HBeAg secretion at 111 to 1000 nM incubated for 24 hrs followed by replacement with fresh medium and measured at day 5 post infection by ELISA. Format: functional, organism-based. To be noted: dose 111-1000 nM.
For series [14], the target named is T1, Hepatic sodium/bile acid cotransporter. Put plainly: Inhibition of human NTCP-mediated [3H]-TCA uptake expressed in human HepG2 cells. Format: cell-based. To be noted: for inhibition (INH): human, hepg2.
In series [15] the test system is Hepatitis B virus. The series is described as follows: Antiviral activity against HBV infected in human HepG2-NTCP cells assessed as reduction in HBeAg secretion incubated for 24 hrs followed replacement with fresh medium and measured at day 5 post infection by ELISA. Format: functional, organism-based.
Series [16] deals with T1, Hepatic sodium/bile acid cotransporter. Put plainly: Inhibition of human NTCP-mediated [3H]-Estrone sulfate uptake expressed in human HepG2 cells at 2 uM. To be noted: hepg2, 2 µM. It is filed as cell-based.
The test system of series [17] is Hepatitis B virus. Put plainly: Antiviral activity against HBV infected in human HepG2-NTCP cells assessed as reduction in HBeAg secretion at 1 uM compound added along with viral infection by ELISA. It is filed as functional, organism-based.
In series [18] the test system is Hepatitis B virus. The series is described as follows: Antiviral activity against HBV infected in human HepG2-NTCP cells assessed as reduction in intracellular HBV RNA level at 1 uM by qPCR analysis. Format: functional, organism-based. In general terms: Real-time PCR tracks product formation cycle by cycle.
The subject of series [19] is HepG2. The series is described as follows: Inhibition of tree shrew NTCP-mediated [3H]-TCA uptake expressed in human HepG2 cells. It is filed as cell-based. Particulars: Scandentia.

As to `C[C@H](CCC(=O)NCCS(=O)(=O)O)[C@H]1CC[C@H]2[C@@H]3[C@@H](O)C[C@@H]4C[C@H](NC(=O)CCCC(=O)N[C@@H]5CC[C@@]6(C)[C@@H](C5)C[C@H](O)[C@@H]5[C@@H]6CC[C@]6(C)[C@@H]([C@H](C)CCC(=O)NCCS(=O)(=O)O)CC[C@@H]56)CC[C@]4(C)[C@H]3CC[C@]12C`, the figures for the Activity result in the series on HepG2 [1], with Hepatocyte and with Hepatitis delta virus were “Non-Toxic”, “Non-Toxic” and 2.5%, respectively. Further, the “inhibition (INH)” value in [2] is listed as “Active”; in [3], “Active”; in series [5], “Active”; in series [8] it was “Not Active”; in series [9], “Not Active”; in [11], “Active”. Besides, the “inhibition (INH)” value in [14] and in series [16] was “Active” in each case. Besides, the outcome in the series with HepG2 [4] and with Hepatitis B virus [7] was inactive. For the same compound, the outcome in the series with Hepatitis B virus [6], in the series with Hepatitis B virus [10], with Hepatitis B virus [12], in the series on Hepatitis B virus [13], with Hepatitis B virus [17] and in the series on Hepatitis B virus [18] was Active. For the same compound, the results for the pIC50 (in series [14]; with Hepatitis B virus [15]) were 7.23 and 7.39, respectively. Moreover, the inhibition entry in the series on HepG2 [19] is “inactive”.
On to `C[C@H](CCC(=O)O[C@@H]1CC[C@@]2(C)[C@@H](C1)C[C@H](O)[C@@H]1[C@@H]2CC[C@]2(C)[C@@H]([C@H](C)CCC(=O)NCCS(=O)(=O)O)CC[C@@H]12)[C@H]1CC[C@H]2[C@@H]3[C@@H](O)C[C@@H]4C[C@H](O)CC[C@]4(C)[C@H]3CC[C@]12C`, for which the Activity entry in the series with HepG2 [1] was “Non-Toxic”; in the series with Hepatocyte, “Non-Toxic”; in the series on Hepatitis delta virus, 1.7%. For the same compound, the “inhibition (INH)” value in [2] is listed as “Active”; in series [3], “Active”; in series [5], “Active”; in series [8], “Not Active”; in series [9], “Active”; in [11], “Active”. In addition, the “inhibition (INH)” value in series [14] and in series [16] was “Active” throughout. The outcome with HepG2 [4] and in the series on Hepatitis B virus [7] was inactive. The outcome in the series with Hepatitis B virus [6], with Hepatitis B virus [10], in the series with Hepatitis B virus [12], with Hepatitis B virus [13], in the series on Hepatitis B virus [17] and in the series on Hepatitis B virus [18] was Active. The pIC50 – broadly, −log10 of the IC50, conventionally taken in molar units – with Hepatitis B virus [15] was 7.24. Also, in the series on HepG2 [19], the inhibition result is “Active”.
